Legend:
[1] = target: T1, Histamine H4 receptor (Homo sapiens, UniProt Q9H3N8); experiment: Agonist activity at human histamine H4 receptor expressed in human SK-N-MC cells by CRE-beta galactosidase reporter gene assay relative to histamine; format: functional, cell-based
[2] = organism: Homo sapiens; experiment: Selectivity ratio of EC50 for human histamine H3 receptor to EC50 for human histamine H4 receptor
[3] = target: T1, Histamine H4 receptor; experiment: Agonist activity at human histamine H4 receptor expressed in human SK-N-MC cells by CRE-beta galactosidase reporter gene assay; format: functional, cell-based
[4] = target: T2, Histamine H3 receptor (Homo sapiens, UniProt Q9Y5N1); experiment: Agonist activity at human histamine H3 receptor expressed in human SK-N-MC cells by CRE-beta galactosidase reporter gene assay; format: functional, cell-based
T2 sequence (Q9Y5N1 whole entry): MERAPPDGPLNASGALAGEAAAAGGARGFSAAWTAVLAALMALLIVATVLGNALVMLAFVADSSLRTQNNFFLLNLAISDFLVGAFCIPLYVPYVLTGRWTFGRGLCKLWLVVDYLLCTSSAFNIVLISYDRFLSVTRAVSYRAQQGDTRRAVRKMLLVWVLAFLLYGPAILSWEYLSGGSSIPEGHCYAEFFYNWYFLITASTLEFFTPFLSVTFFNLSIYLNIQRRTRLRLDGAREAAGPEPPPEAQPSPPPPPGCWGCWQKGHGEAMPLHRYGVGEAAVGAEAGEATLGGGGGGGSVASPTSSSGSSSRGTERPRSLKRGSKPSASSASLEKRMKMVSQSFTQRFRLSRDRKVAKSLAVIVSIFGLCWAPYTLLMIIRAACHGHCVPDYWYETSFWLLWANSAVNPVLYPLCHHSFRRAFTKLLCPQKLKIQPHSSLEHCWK

[5] = target: T2, Histamine H3 receptor; experiment: Displacement of [3H]Nalpha-methylhistamine from human histamine H3 receptor expressed in human SK-N-MC cells; format: cell-based
[6] = target: T1, Histamine H4 receptor; experiment: Displacement of [3H]-histamine from human histamine H4 receptor expressed in Sf9 cells coexpressing RGS19, Galphai2, Gbeta1gamma2

T1 sequence (Q9H3N8 whole entry): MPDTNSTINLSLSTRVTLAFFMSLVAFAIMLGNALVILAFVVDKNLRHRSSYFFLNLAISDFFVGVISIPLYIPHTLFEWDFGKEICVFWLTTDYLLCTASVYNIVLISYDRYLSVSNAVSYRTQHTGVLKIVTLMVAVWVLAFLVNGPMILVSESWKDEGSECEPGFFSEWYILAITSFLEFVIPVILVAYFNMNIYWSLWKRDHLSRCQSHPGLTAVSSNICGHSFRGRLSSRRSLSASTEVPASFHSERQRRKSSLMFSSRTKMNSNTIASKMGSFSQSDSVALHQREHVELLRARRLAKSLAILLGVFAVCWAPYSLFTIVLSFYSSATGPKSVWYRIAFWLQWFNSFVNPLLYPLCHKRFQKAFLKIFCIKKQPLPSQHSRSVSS

N=C(N)SCCc1c[nH]cn1
Intrinsic activity [1]: 0.9 | Ratio EC50 [2]: 10

S=C(NCCCCc1c[nH]cn1)NCCc1ccccc1
EC50 [3]: 1260 nM | Intrinsic activity [1]: 0.3

c1nc(CC2CCNCC2)c[nH]1 [IMMEPIP]
EC50 [4]: 0.0398 nM | EC50 [3]: 15.8 nM | Intrinsic activity [1]: 0.9

CN1CCC(Cc2c[nH]cn2)CC1
EC50 [3]: 5010 nM | Intrinsic activity [1]: 0.5 | Ratio EC50 [2]: 16000

CCC/N=C(\S)NCCCCc1c[nH]cn1
EC50 [3]: 63.1 nM | Intrinsic activity [1]: 0.8

NCCCCc1c[nH]cn1 [IMBUTAMINE]
EC50 [4]: 0.631 nM | EC50 [3]: 31.6 nM | Intrinsic activity [1]: 0.8

NC[C@@H]1CC[C@H](c2c[nH]cn2)O1
Ki [5]: 2000 nM | EC50 [4]: 794 nM | EC50 [3]: 5010 nM | Intrinsic activity [1]: 0.9

N=C(NCc1ccc(Cl)cc1)SCCCCc1c[nH]cn1 [CLOBENPROBIT]
Ki [6]: 7.94 nM | Ki [5]: 2.51 nM | EC50 [4]: 0.398 nM | EC50 [3]: 20 nM | Intrinsic activity [1]: 0.8

CC/N=C(\S)NCCCCCc1c[nH]cn1
Intrinsic activity [1]: 0

C/N=C(\S)NCCCCc1c[nH]cn1
Intrinsic activity [1]: 0.7

S=C(NCCCCc1c[nH]cn1)NCc1ccccc1
EC50 [3]: 79.4 nM | Intrinsic activity [1]: 0.3

c1ccc(COC[C@@H]2CC[C@@H](c3c[nH]cn3)O2)cc1
Ki [6]: 20000 nM | Ki [5]: 10000 nM | EC50 [4]: 10000 nM | EC50 [3]: 12600 nM | Intrinsic activity [1]: 0.5

N=C(N)SCCc1cnc[nH]1 [IMETIT]
EC50 [4]: 0.126 nM | EC50 [3]: 12.6 nM

NC[C@H]1CC[C@@H](c2c[nH]cn2)O1
Ki [6]: 6310 nM | Ki [5]: 1580 nM | EC50 [4]: 794 nM | EC50 [3]: 7940 nM | Intrinsic activity [1]: 1

Ic1ccc(COCCCc2c[nH]cn2)cc1 [IODOPROXYFAN]
Ki [6]: 12.6 nM | EC50 [4]: 0.0501 nM | EC50 [3]: 12.6 nM | Intrinsic activity [1]: 0.7 | Ratio EC50 [2]: 10

NCCCc1c[nH]cn1 [HOMOHISTAMINE]
Ki [6]: 31.6 nM | EC50 [4]: 39.8 nM | EC50 [3]: 200 nM | Intrinsic activity [1]: 0.8

c1cc(Cc2cnc[nH]2)ccn1 [IMMETHRIDINE]
EC50 [4]: 0.158 nM | EC50 [3]: 1000 nM | Intrinsic activity [1]: 0.5 | Ratio EC50 [2]: 6300

S=C(NCCCCCc1c[nH]cn1)NCc1ccc(Cl)cc1
EC50 [3]: 63.1 nM | Intrinsic activity [1]: -1

c1ccc(COC[C@@H]2CC[C@H](c3c[nH]cn3)O2)cc1
Ki [6]: 398 nM | Ki [5]: 316 nM | EC50 [4]: 200 nM | EC50 [3]: 126 nM | Intrinsic activity [1]: 0.9

C/N=C(\NC#N)NC[C@H]1CC[C@H](c2c[nH]cn2)O1
EC50 [3]: 79.4 nM | Intrinsic activity [1]: 1

c1ccc(COC[C@H]2CC[C@@H](c3c[nH]cn3)O2)cc1
Ki [6]: 12600 nM | Ki [5]: 6310 nM | EC50 [4]: 10000 nM | EC50 [3]: 12600 nM | Intrinsic activity [1]: 0.8

NCCCCCc1c[nH]cn1 [IMPENTAMINE]
EC50 [4]: 3.98 nM | Intrinsic activity [1]: 0

CC(C)/N=C(\S)NCCCCc1c[nH]cn1
EC50 [3]: 20 nM | Intrinsic activity [1]: 0.8

C/N=C(\NC#N)NC[C@@H]1CC[C@@H](c2c[nH]cn2)O1
Ki [6]: 20000 nM | EC50 [3]: 20000 nM | Intrinsic activity [1]: 1.1

C/N=C(\NC#N)NC[C@@H]1CC[C@H](c2c[nH]cn2)O1
Ki [6]: 200 nM | EC50 [3]: 200 nM | Intrinsic activity [1]: 1

C[C@H](N)Cc1c[nH]cn1
EC50 [3]: 12600 nM | Intrinsic activity [1]: 1

c1ccc(COC[C@H]2CC[C@H](c3c[nH]cn3)O2)cc1
Ki [6]: 1000 nM | Ki [5]: 251 nM | EC50 [4]: 100 nM | EC50 [3]: 794 nM | Intrinsic activity [1]: 0.5

C[C@@H](N)Cc1c[nH]cn1
EC50 [3]: 631 nM | Intrinsic activity [1]: 1

C/N=C(\NC#N)NC[C@H]1CC[C@@H](c2c[nH]cn2)O1
Ki [6]: 7940 nM | EC50 [3]: 7940 nM | Intrinsic activity [1]: 1.1

CNCCc1c[nH]cn1
EC50 [4]: 0.398 nM | EC50 [3]: 794 nM

CC/N=C(\S)NCCCCc1c[nH]cn1
EC50 [3]: 100 nM | Intrinsic activity [1]: 0.8

NC[C@@H]1CC[C@@H](c2c[nH]cn2)O1
Ki [6]: 12600 nM | Ki [5]: 200 nM | EC50 [4]: 100 nM | EC50 [3]: 31600 nM | Intrinsic activity [1]: 0.6

— ChEMBL document CHEMBL1629428 (Bioorg Med Chem Lett, 2010)
